The values below come from publication PMC11767423, “Design, Synthesis, and Antioxidant and Anti-Tyrosinase Activities of (Z)-5-Benzylidene-2-(naphthalen-1-ylamino)thiazol-4(5H)-one Analogs: In Vitro and In Vivo Insights” (Molecules, 2025).

Data set [1] can be described thus: Assay for ABTS+ radical scavenging. As to conditions: 100 μM. As to the method:
The ABTS^+-scavenging efficacy of compounds 1–15 was determined by oxidizing ABTS with K2S2O8 to prepare ABTS^+. The prepared ABTS^+ solution was mixed with the test samples (1–15 and Trolox, a positive control) and the radical-scavenging efficacy of the test samples was explored by measuring the decrease in optical density at 732 nm. All test samples were tested at 100 μM.
To acquire ABTS^+ radicals, ABTS (14 mM in 20 mL H2O) was mixed with K2S2O8 (4.9 mM in 20 mL H2O), an oxidant agent, and stored at 22 °C in a place without light for 15 h. The absorbance of the prepared ABTS^+ radical solution was adjusted to 0.70 ± 0.01 at 732 nm by adding methanol. Test samples (Trolox [positive control] and 1–15) were dissolved in a co-solvent (DMSO:EtOH = 1:10 [v/v]). The diluted ABTS^+ radical solution (90 μL) was added to the test sample solution (10 μL) in each well of a 96-well plate and held at 22 °C in the dark for 2 min. The optical density of each well was recorded at 732 nm every 1 min for 10 min using an ELISA reader. The final concentration of test samples was 100 μM. %Radical-scavenging activity was determined using the formula 100 × [(Abscon − Abssam)/Abscon], where Abscon and Abssam represent the optical densities of the control and the samples, respectively.

Data set [2] is described as follows: Assay for DPPH radical scavenging. As to conditions: 500 μM; 30 min in the dark. As to the method:
To evaluate the DPPH radical-scavenging efficacy of 1–15, a DPPH methanol solution was mixed with compounds 1–15, and the mixture was left in the dark. After 30 min, the radical-scavenging efficacy of each compound was determined by measuring the optical density at 517 nm. Vitamin C (L-ascorbic acid) was used for comparing radical-scavenging activity, and all test samples were treated at 500 μM.
DPPH was dissolved in methanol to prepare a 0.2 mM solution, and test samples (vitamin C [L-ascorbic acid, LA; positive control] and 1–15) were dissolved in DMSO to prepare a 5 mM solution. The DPPH methanolic solution (180 μL) was added to the test sample DMSO solution (20 μL) in each well of a 96-well microplate and kept in a place without light for 30 min at 22 °C. Using a VersaMax™ ELISA reader, the optical density of each well was recorded at 517 nm to determine DPPH radical-scavenging activity.
In general terms: Loss of DPPH colour is used to gauge radical scavenging.

In data set [3] the test system is B16F10 cells. As to the kind of experiment: Cell viability on B16F10 cells (EZ-Cytox). It counts as cell-based. The following applies: 1, 2, 5, 10 and 20 μM; 72 h. As to the method: Therefore, we investigated whether these compounds exert tyrosinase inhibitory activity in B16F10 mammalian cells. We examined the effects of these compounds on B16F10 cell viability. Cell viability was assessed for 72 h at five concentrations (1, 2, 5, 10, and 20 μM) of compounds 10 and 15.
The viability of B16F10 cells in the presence of compounds 10 and 15 was assayed. A 96-well microplate containing 1 × 10^3 B16F10 cells per well was incubated at 37 °C in a humid environment containing 5% CO2 for 24 h. Test samples (10 and 15) were added to each well at concentrations of 0, 1, 2, 5, 10, and 20 μM and incubated for 72 h. Each well was exposed to a 10 μL EZ-Cytox solution (EZ-500®, DoGenBio, Seoul, Republic of Korea) and incubated for 2 h. To determine cell viability, well optical density was measured at 450 nm using an ELISA reader.

The test system of data set [4] is B16F10 cells. As to the kind of experiment: Melanin content assay in B16F10 cells. As to conditions: α-MSH + IBMX, 72 h. It counts as cell-based. The procedure:
After 72 h, the effect of compound 10 on melanin biosynthesis was determined. A 6-well microplate containing 5 × 10^3 B16F10 cells per well was incubated at 37 °C for 24 h. Compound 10 was added to each well at 5, 10, and 20 μM and incubated for 1 h, and then stimulators (1 μM α-MSH and 200 μM IBMX) were added to each well before 72 h incubation. […] For the melanin content quantification, the cells were lysed at 60 °C for 1 h in 100 μL 1N-NaOH solution containing 10% DMSO after washing 2 times with phosphate-buffered saline (PBS). The cell lysates were transferred to a 96-well microplate and the optical density was measured at 405 nm using an ELISA reader to calculate the melanin content in each well.

In the next data set the target is mushroom tyrosinase (Agaricus bisporus, UniProt C7FF04). As to the kind of experiment: Kinetic experiment using mushroom tyrosinase (Lineweaver–Burk and Dixon plots). The format is biochemical. As to the method:
The plots for inhibitors 10 and 15 were obtained by measuring the initial rate of dopachrome production in the presence of various L-DOPA substrate concentrations (Figure 3A,C). For the kinetic experiments, compounds 10 and 15 were used at 0, 1, 2, and 4 μM and at 0, 4, 8, and 16 μM, respectively.
Ki, known as the dissociation constant or inhibition constant, describes the binding affinity between the enzyme and inhibitor. […] Dixon plots were acquired by plotting the inverse of the initial dopachrome formation rate against the inhibitor concentration (Figure 3B,D). Each Dixon plot produces four lines that merge at one point in the second quadrant. The absolute value of the x co-ordinate of the merge point represents the Ki value. […] The lower the Ki value, the stronger the binding affinity. Thus, compound 10 bound more strongly to the tyrosinase active site than compound 15.
The identification of the tyrosinase inhibition mechanism was carried out by kinetic studies using mushroom tyrosinase. Test samples (10 μL; compounds 10 and 15) were mixed with a mushroom tyrosinase aqueous solution (20 μL; 100 units/mL) and a substrate solution (170 μL; substrate [L-DOPA] and 17.2 mM sodium phosphate pH 6.5 buffer) in each well of 96-well microplate. To obtain Lineweaver–Burk plots for kinetic analysis, L-DOPA and test samples were used at various concentrations: 0, 1, 2, and 4 μM for 10; 0, 4, 8, and 16 μM for 15; and 1, 2, 4, 8, and 16 mM for L-DOPA. During a 30 min incubation period, the initial dopachrome formation rate was calculated by measuring the optical density at 475 nm at 5 min intervals using an ELISA reader. Lineweaver–Burk plots were prepared by plotting the inverse of the substrate concentration against the inverse of the initial dopachrome formation rate in the presence of four different concentrations of compounds 10 and 15.

Data set [5] relates to B16F10 cells. As to the kind of experiment: In situ cellular tyrosinase activity assay (L-DOPA staining). The following applies: α-MSH + IBMX, 72 h, then L-DOPA 2 h. It counts as cell-based. As to the method: The effect of 10 on cellular tyrosinase activity was investigated in situ using L-DOPA and B16F10 cells. This experimental method allows for the direct observation of cellular melanin production. […] After 72 h of incubation, the cells were treated with L-DOPA for 2 h to induce melanin production.
A 24-well plate containing 1 × 10^3 B16F10 cells per well was incubated at 37 °C for 24 h. […] After incubation for 72 h, the cells were fixed for 50 min using paraformaldehyde (4%), rinsed twice with PBS, and permeabilized for 2 min using Triton X-100 (0.1%). The cells were washed with PBS and 500 μL of 2 mM L-DOPA solution was added. After the cells were incubated at 37 °C for 2 h, stained images were obtained using a camera connected to a microscope (Motic, Hong Kong, China).

The subject of data set [6] is B16F10 cellular tyrosinase. As to the kind of experiment: Cellular tyrosinase activity assay in B16F10 cells. It counts as cell-based. The following applies: α-MSH + IBMX, 72 h. As to the method: We analyzed the effect of 10 on B16F10 cellular tyrosinase activity to determine whether the ability of 10 inhibiting melanogenesis results from its ability to inhibit cellular tyrosinase activity.
A 6-well microplate containing 5 × 10^3 B16F10 cells per well was incubated at 37 °C for 24 h. Compound 10 was added to each well at 5, 10, and 20 μM and incubated for 1 h, and then stimulators (1 μM α-MSH and 200 μM IBMX) were added to each well before 72 h incubation.
To measure the cellular tyrosinase activity, the cells incubated for 72 h were washed 2 times with PBS, exposed to a 100 μL lysis buffer solution containing 5 μL 2 mM phenylmethylsulfonyl fluoride, 5 μL 20% Triton X-100, and 90 μL 50 mM phosphate buffer (pH 6.5), and cultivated for 30 min at −80 °C. After the lysates were centrifuged at 4 °C for 10 min at 10,000× g, an aliquot (80 μL) of the supernatants was added to each well of a 96-well microplate containing 20 μL of 10 mM L-DOPA. Data for the optical density at 475 nm were obtained every 1 min for 10 min at 37 °C using an ELISA reader to determine cellular tyrosinase activity.

Molecules are shown by their SMILES.

Chain of mushroom tyrosinase (C7FF04 1-392): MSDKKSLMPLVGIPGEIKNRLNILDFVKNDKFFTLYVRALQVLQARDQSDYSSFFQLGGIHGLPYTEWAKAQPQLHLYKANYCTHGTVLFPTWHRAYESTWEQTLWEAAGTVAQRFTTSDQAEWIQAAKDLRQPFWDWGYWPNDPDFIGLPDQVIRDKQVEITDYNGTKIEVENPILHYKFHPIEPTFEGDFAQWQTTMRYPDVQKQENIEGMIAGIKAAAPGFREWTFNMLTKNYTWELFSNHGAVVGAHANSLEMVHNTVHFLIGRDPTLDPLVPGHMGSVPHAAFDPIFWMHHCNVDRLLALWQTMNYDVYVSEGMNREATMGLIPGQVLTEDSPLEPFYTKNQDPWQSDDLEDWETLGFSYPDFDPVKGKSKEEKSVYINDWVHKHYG

`COc1cc(/C=C2\SC(Nc3cccc4ccccc34)=NC2=O)cc(OC)c1O` [Compound 13, (Z)-5-(4-Hydroxy-3,5-dimethoxybenzylidene)-2-(naphthalen-1-ylamino)thiazol-4(5H)-one]: the “ABTS+ scavenging” value in data set [1] was found to be 97%. Besides, in data set [2], the DPPH radical scavenging came to 51%.
In turn, `COc1ccc(/C=C2\SC(Nc3cccc4ccccc34)=NC2=O)cc1O` [Compound 6, (Z)-5-(3-Hydroxy-4-methoxybenzylidene)-2-(naphthalen-1-ylamino)thiazol-4(5H)-one] returned a DPPH radical scavenging in data set [2] of 21%.
In the case of `COc1cc(/C=C2\SC(Nc3cccc4ccccc34)=NC2=O)ccc1O` [Compound 5, (Z)-5-(4-Hydroxy-3-methoxybenzylidene)-2-(naphthalen-1-ylamino)thiazol-4(5H)-one], the DPPH radical scavenging in data set [2] worked out at 62%.
As for `O=C1N=C(Nc2cccc3ccccc23)S/C1=C\c1ccc(O)cc1O` [Compound 10, (Z)-5-(2,4-Dihydroxybenzylidene)-2-(naphthalen-1-ylamino)thiazol-4(5H)-one], the B16F10 cell viability result in the data set on B16F10 cells [3] was “no perceptible effect on B16F10 cell viability”. The stimulator-induced melanin content result in the data set with B16F10 cells [4] (5 μM, kojic acid at 20 μM) is “reduced the stimulator-induced melanin content levels similarly to kojic acid”; with B16F10 cells [4] (5, 10 and 20 μM) it was “strongly reduced stimulator-induced melanin content dose-dependently”. Moreover, the melanin content level with B16F10 cells [4] (20 μM, controls 100%) is on record as 86%. In data set [1], the “ABTS+ scavenging” value is recorded as 97%. The inhibition constant (Ki) on mushroom tyrosinase (Dixon plots, substrate L-DOPA) was 2040 nM. Further, the inhibition mechanism result against mushroom tyrosinase (Lineweaver–Burk plots, L-DOPA 1–16 mM) is given as “compete with the substrates for binding to the active site of tyrosinase”. Further, the DPPH radical scavenging in data set [2] was 51%. For the same compound, the “in situ melanin formation (L-DOPA staining)” value was “reduced melanin formation to the level of the untreated control” with B16F10 cells [5] (20 μM); “dose-dependently decreased melanin formation” in the data set with B16F10 cells [5] (5, 10 and 20 μM). Also, the cellular tyrosinase activity result in data set [6] (10 μM) is given as “slightly more potent tyrosinase inhibitory potency than kojic acid at 20 μM”; in data set [6] (20 μM), “reduced cellular tyrosinase activity to almost the level of cellular tyrosinase activity in the untreated control”; in data set [6] (5, 10 and 20 μM), “dose-dependent decrease in cellular tyrosinase activity”.
In turn, `O=C1O[C@H]([C@@H](O)CO)C(O)=C1O` [Vitamin C, L-ascorbic acid, reference compound] came in with a DPPH radical scavenging in data set [2] of 90%.
Same read-out and setting: then `CCOc1cc(/C=C2\SC(Nc3cccc4ccccc34)=NC2=O)ccc1O` [Compound 7, (Z)-5-(3-Ethoxy-4-hydroxybenzylidene)-2-(naphthalen-1-ylamino)thiazol-4(5H)-one], with 61%.
As to `CC(C)(C)c1cc(/C=C2\SC(Nc3cccc4ccccc34)=NC2=O)cc(C(C)(C)C)c1O` [Compound 14, (Z)-5-(3,5-Di-tert-butyl-4-hydroxybenzylidene)-2-(naphthalen-1-ylamino)thiazol-4(5H)-one], the “ABTS+ scavenging” value in data set [1] is on record as 95%. In data set [2], the DPPH radical scavenging is listed as 68%.

By Ki is commonly meant the equilibrium dissociation constant of an inhibitor or competing ligand from its target. Read a high Ki as lower affinity.
